16 compounds from ChEMBL document CHEMBL5032535, “Design, synthesis and biological evaluation of a novel spiro oxazolidinedione as potent p300/CBP HAT inhibitor for the treatment of ovarian cancer” (Bioorg Med Chem, 2021) can be followed below.

Data set [1] has as its system OVCAR-3. Kind of data set: Antiproliferative activity against human OVCAR-3 cells assessed as inhibition of cell proliferation measured after 120 hrs by Cell-titre glo assay. It is filed as functional, cell-based. The settings on record: OVCAR-3, 120 h.
The target in data set [2] is T1, Histone acetyltransferase p300 (Homo sapiens, UniProt Q09472). Kind of data set: Inhibition of p300 (unknown origin) preincubated for 15 mins followed by addition of substrate [3H] Ac-CoA and measured after 60 mins by liquid scintillation counting assay.
T1 sequence (Q09472 whole entry): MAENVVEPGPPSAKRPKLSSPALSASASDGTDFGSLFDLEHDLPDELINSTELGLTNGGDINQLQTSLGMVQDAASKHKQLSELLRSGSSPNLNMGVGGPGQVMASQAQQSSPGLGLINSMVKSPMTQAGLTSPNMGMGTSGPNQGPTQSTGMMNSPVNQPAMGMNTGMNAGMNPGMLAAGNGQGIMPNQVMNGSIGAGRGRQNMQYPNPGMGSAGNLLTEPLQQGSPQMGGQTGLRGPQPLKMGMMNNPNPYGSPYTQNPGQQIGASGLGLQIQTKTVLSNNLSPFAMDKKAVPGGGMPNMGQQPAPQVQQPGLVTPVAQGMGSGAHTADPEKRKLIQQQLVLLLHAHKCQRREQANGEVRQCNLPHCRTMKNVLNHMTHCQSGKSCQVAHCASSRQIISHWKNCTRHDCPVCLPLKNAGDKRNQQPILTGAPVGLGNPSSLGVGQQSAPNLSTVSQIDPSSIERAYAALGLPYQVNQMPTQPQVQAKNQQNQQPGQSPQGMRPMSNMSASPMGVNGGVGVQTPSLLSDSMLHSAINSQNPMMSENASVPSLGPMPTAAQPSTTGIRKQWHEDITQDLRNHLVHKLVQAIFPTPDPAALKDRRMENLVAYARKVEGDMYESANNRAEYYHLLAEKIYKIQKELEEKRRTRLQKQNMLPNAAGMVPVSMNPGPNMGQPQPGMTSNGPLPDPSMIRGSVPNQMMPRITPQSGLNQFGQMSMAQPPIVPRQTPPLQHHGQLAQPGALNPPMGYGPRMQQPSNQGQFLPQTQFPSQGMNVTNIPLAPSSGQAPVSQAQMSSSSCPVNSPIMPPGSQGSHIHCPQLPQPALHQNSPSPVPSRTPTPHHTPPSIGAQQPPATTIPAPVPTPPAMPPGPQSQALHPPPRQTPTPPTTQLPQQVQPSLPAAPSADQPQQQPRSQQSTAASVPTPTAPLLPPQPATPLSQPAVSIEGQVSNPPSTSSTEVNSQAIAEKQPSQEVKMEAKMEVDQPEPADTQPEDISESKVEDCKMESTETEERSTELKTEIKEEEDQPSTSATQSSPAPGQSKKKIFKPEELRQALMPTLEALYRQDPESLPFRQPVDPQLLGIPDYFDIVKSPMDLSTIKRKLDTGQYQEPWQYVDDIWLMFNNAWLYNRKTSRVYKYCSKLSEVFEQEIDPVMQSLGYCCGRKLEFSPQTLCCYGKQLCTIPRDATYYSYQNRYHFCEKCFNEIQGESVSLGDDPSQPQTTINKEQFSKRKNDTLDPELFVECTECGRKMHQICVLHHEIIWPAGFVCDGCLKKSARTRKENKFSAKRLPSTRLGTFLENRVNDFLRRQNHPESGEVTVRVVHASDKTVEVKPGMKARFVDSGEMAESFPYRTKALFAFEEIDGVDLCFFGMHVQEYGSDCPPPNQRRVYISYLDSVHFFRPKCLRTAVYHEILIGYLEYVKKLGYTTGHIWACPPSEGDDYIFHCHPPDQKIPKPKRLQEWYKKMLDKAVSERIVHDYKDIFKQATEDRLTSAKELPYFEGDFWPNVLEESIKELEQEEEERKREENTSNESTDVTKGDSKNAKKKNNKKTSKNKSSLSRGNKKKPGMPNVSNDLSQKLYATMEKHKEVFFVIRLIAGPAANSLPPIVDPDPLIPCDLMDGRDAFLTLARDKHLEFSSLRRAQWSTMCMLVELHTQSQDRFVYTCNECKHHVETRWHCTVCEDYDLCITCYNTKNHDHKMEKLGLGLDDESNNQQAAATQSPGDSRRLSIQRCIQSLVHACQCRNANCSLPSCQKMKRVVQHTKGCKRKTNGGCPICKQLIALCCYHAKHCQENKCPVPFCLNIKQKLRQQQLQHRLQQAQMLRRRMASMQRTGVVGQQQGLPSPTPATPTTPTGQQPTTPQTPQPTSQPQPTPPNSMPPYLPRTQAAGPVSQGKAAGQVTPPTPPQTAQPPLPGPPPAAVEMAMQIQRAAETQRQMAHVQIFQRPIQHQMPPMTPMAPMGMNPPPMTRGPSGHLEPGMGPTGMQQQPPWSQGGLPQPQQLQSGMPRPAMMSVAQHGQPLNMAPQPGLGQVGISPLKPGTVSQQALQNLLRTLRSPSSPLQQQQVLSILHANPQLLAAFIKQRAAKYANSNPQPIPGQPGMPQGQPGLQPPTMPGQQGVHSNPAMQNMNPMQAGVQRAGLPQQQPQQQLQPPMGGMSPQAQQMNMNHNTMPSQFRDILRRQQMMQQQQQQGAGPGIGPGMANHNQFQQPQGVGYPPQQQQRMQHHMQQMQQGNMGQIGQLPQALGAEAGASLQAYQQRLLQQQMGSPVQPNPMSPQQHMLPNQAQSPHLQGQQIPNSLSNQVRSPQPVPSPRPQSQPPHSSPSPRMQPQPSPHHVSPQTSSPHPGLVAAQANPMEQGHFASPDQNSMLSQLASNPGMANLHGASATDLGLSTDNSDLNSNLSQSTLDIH
In a further data set the target is CREB-binding protein (Homo sapiens, UniProt Q92793). Kind of data set: Inhibition of CBP (unknown origin) preincubated for 15 mins followed by addition of substrate [3H] Ac-CoA and measured after 60 mins by liquid scintillation counting assay.
CREB-binding protein, sequence (Q92793 whole entry): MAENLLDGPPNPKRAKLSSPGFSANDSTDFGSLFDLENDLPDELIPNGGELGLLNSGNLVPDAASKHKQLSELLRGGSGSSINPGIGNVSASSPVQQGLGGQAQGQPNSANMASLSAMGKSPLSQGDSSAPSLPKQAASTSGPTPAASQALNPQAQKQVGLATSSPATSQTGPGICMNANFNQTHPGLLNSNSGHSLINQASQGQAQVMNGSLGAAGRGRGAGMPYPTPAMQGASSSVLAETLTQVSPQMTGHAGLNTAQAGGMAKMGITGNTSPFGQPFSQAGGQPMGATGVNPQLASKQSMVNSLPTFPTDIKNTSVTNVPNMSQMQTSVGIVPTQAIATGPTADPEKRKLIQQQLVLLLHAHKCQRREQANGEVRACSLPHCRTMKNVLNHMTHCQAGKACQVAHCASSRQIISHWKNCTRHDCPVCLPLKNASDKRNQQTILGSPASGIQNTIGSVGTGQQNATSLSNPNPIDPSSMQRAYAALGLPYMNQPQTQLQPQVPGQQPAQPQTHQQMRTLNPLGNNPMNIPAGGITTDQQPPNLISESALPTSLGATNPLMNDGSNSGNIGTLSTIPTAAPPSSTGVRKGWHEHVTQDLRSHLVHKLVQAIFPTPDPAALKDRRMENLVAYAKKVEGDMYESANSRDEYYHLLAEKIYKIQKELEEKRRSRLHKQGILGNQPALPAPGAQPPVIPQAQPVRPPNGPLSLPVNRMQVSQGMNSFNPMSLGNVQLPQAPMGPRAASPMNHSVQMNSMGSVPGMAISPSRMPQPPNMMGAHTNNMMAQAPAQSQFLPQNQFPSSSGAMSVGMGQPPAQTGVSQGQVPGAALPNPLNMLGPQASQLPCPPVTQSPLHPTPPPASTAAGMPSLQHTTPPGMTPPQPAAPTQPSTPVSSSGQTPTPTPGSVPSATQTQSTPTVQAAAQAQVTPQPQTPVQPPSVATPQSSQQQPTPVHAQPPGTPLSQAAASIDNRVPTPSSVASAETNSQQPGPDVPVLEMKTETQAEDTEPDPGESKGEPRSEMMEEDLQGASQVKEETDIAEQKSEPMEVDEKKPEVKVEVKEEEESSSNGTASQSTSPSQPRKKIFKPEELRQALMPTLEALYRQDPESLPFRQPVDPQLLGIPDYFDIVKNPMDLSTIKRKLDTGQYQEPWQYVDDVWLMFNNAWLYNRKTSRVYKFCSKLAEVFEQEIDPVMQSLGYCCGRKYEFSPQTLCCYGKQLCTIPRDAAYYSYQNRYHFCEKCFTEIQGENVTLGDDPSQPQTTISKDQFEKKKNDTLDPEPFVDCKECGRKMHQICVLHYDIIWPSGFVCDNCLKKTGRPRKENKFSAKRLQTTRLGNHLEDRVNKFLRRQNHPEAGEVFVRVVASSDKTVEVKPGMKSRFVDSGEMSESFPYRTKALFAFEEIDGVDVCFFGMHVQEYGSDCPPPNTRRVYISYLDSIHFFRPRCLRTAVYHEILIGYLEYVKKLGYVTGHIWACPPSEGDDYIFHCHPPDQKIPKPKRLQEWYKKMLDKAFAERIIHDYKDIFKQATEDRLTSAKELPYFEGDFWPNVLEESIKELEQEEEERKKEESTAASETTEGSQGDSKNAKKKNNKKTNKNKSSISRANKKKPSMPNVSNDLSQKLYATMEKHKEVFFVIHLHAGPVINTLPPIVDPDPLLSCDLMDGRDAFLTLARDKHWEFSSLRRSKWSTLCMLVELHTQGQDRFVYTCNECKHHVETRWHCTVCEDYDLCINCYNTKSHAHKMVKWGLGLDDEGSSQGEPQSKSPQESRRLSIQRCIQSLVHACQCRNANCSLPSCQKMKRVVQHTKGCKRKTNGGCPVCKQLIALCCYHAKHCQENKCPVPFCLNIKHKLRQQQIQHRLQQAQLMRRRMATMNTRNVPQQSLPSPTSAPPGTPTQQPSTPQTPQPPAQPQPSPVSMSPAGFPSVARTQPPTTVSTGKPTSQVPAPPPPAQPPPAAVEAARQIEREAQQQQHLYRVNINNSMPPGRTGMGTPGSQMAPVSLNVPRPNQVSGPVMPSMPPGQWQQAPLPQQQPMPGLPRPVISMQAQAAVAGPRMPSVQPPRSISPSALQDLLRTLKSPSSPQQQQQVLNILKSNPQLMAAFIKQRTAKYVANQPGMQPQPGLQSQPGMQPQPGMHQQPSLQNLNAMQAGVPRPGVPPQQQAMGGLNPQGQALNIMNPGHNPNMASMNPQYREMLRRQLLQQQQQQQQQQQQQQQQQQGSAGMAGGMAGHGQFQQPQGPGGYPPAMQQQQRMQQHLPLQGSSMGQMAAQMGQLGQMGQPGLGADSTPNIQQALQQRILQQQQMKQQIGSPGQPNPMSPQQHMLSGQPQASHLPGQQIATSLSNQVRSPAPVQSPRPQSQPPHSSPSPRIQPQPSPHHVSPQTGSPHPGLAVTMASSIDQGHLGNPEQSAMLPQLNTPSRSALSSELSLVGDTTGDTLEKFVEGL
Another data set concerns A2780. Kind of data set: Antiproliferative activity against human A2780 cells assessed as inhibition of cell proliferation measured after 120 hrs by Cell-titre glo assay. Format: functional, cell-based. The settings on record: A2780, 120 h.
The target in data set [3] is Histone acetyltransferase KAT2A (Homo sapiens) (UniProt Q92830). Nature of the data set: Inhibition of GCN5 in human OVCAR-3 cells assessed as reduction of H3K9ac levels at 0.25 to 4 uM after 24 hrs by Western blot assay. Format: cell-based. The settings on record: dose 0.25-4 µM. Background: Immunoblotting shows a protein as a band on a membrane.
A short description of data set [4]: Cmax in Sprague-Dawley rat at 3 mg/kg, po. It is filed as ADME, organism-based. More on the design: route oral, dose 3 mg/kg. As to conditions: in vivo.
Data set [5] deals with CREB-binding protein/Histone acetyltransferase p300 (Homo sapiens) (UniProt Q09472+Q92793). Nature of the data set: Inhibition of p300/CBP in human OVCAR-3 cells assessed as reduction of C-myc levels at 0.25 uM measured after 2 days by Western blot assay relative to control. As to conditions: time 2.0 day. It is filed as cell-based.
CREB-binding protein/Histone acetyltransferase p300 (Homo sapiens), sequence (Q09472 whole entry, looked up): as the sequence (Q09472 whole entry) above
CREB-binding protein/Histone acetyltransferase p300 (Homo sapiens), sequence (Q92793 whole entry, looked up): as the sequence (Q92793 whole entry) above
In the next data set the test system is TOV21G. Kind of data set: Antiproliferative activity against human TOV-21G cells assessed as inhibition of cell proliferation measured after 120 hrs by Cell-titre glo assay. It is filed as functional, cell-based.
A further data set has as its system HEK293. Kind of data set: Antiproliferative activity against human 293 cells assessed as inhibition of cell proliferation measured after 120 hrs by Cell-titre glo assay. Format: cell-based. The settings on record: hek293, 120 h.
Data set [6] in a line: Toxicity in Balb/c nude mouse xenografted with human OVCAR-3 cells assessed as body weight loss at 30 mg/kg, ip measured after 24 days. As to conditions: in vivo, 576 h, time 24 day. Format: organism-based. (In general: Xenograft models place foreign cells or tissue in a host animal.)
A short description of data set [7]: Stability in human liver microsomes assessed as intrinsic clearance. Format: ADME, Microsome.
The target in data set [8] is T1, Histone acetyltransferase p300. Kind of data set: Inhibition of p300 in human OVCAR-3 cells assessed as reduction of H3K18ac levels measured after 24 hrs by Western blot assay. Format: cell-based. As to conditions: dose 0.25-4 µM.
Data set [9] in a line: AUC(last) in Sprague-Dawley rat at 3 mg/kg, po. It is filed as ADME, organism-based. More on the design: time 0 - last, route oral, dose 3 mg/kg. As to conditions: in vivo.
A short description of data set [10]: Tmax in Sprague-Dawley rat at 3 mg/kg, po. It is filed as ADME, organism-based. As to conditions: in vivo.
Data set [11] deals with OVCAR-3. Kind of data set: Antitumour activity against human OVCAR-3 cells xenografted in Balb/c mouse assessed as reduction of tumor volume at 100 mg/kg, ip qd measured every 3 to 4 days for 2 weeks. It is filed as functional, organism-based.
The nature of data set [12]: Stability in mouse liver microsomes assessed as intrinsic clearance. Format: ADME, Microsome.
A short description of data set [13]: Stability in rat liver microsomes assessed as intrinsic clearance. It is filed as ADME, Microsome. A general note: Liver microsomes are vesicles of endoplasmic reticulum, rich in cytochrome P450 enzymes.
Data set [14] has as its target T1, Histone acetyltransferase p300. Nature of the data set: Inhibition of p300 in human OVCAR-3 cells assessed as reduction of H3K27ac levels measured after 24 hrs by Western blot assay. It is filed as cell-based. The settings on record: dose 0.25-4 µM.
The nature of data set [15]: Half life in Sprague-Dawley rat at 3 mg/kg, po. Format: ADME, organism-based. As to conditions: in vivo.
In data set [16] the test system is OVCAR-3. Nature of the data set: Antitumour activity against human OVCAR-3 cells xenografted in Balb/c mouse assessed as reduction of tumor volume at 30 mg/kg, ip qd measured every 3 to 4 days for 2 weeks (reference value: 2838.39 +/- 1392.47 mm3). It is filed as functional.
The next data set has as its system SK-OV-3. Kind of data set: Antiproliferative activity against human SK-OV-3 cells assessed as inhibition of cell proliferation measured after 120 hrs by Cell-titre glo assay. Format: functional, cell-based.
Data set [17] in a line: Toxicity in Balb/c nude mouse xenografted with human OVCAR-3 cells assessed as body weight loss at 20 to 30 mg/kg, ip qd measured every 3 to 4 days for 2 weeks. It is filed as organism-based. As to conditions: in vivo, 336 h, dose 20-30 mg/kg.
For data set [18], the system named is OVCAR-3. Nature of the data set: Antitumour activity against human OVCAR-3 cells xenografted in Balb/c mouse assessed as reduction of tumor volume at 20 mg/kg, ip qd measured every 3 to 4 days for 2 weeks. It is filed as functional, organism-based.
Data set [19] has as its target T1, Histone acetyltransferase p300. Nature of the data set: Inhibition of p300 (unknown origin).

Activity calls are given as the source filed them. No cut-off for these calls is given here.

Consider `CNC(=O)Nc1ccc2c(c1)CC[C@@]21OC(=O)N(CC(=O)N(Cc2ccc(F)cc2)[C@@H](C)C(F)(F)F)C1=O` [A-485], for which, in the data set with OVCAR-3 [1], the EC50 – broadly, the concentration needed to bring the measured effect to its halfway point – turned out to be 5440 nM.

On to `CNC(=O)Nc1ccc2c(c1)CC[C@@]21OC(=O)N(CC(=O)N2Cc3ncccc3CC[C@H]2C2CC2)C1=O`, for which the results for the IC50 (in [2]; at CREB-binding protein) were 8.6 nM and 30 nM, respectively.

With `CNC(=O)Nc1ccc2c(c1)CC[C@@]21OC(=O)N(CC(=O)N2Cc3cnccc3CC[C@H]2C2CC2)C1=O`, the IC50 (as a rule, the concentration needed to halve the response being measured) in [2] worked out at 13 nM; on CREB-binding protein, 41 nM.

As for `CNC(=O)Nc1ccc2c(c1)CC[C@@]21OC(=O)N(CC(=O)N2Cc3ccccc3CC[C@H]2C)C1=O`, the results for the half-inhibitory concentration (IC50) (in data set [2]; at CREB-binding protein) were 2.5 nM and 28 nM, respectively. Further, the EC50 with OVCAR-3 [1] came out at 865 nM; with A2780 it was 2710 nM.

As for `CNC(=O)Nc1ccc2c(c1)COC[C@@]21OC(=O)N(CC(=O)N2Cc3cc(F)ccc3OC[C@H]2C2CC2)C1=O`, the IC50 in data set [2] was 12 nM; on CREB-binding protein it was 51 nM.

Regarding `CNC(=O)Nc1ccc2c(c1)CC[C@@]21OC(=O)N(CC(=O)N2Cc3cc(F)ccc3OC[C@H]2C2CC2)C1=O`, the inhibition (commonly the change of the read-out against control, counted positive when it falls) in [3] is “inactive”. The peak concentration (Cmax) (as a rule, the maximum level reached in the sampled fluid or tissue) in data set [4] was 20.3 ng/mL. For the same compound, the IC50 was found to be 0.49 nM in [2], 0.51 nM in data set [19] and 7.1 nM on CREB-binding protein. Moreover, the inhibition in data set [5] was 50%; in data set [8], “Dose-Dependent Effect”; in data set [14], “Dose-Dependent Effect”. Besides, the outcome in the data set on TOV21G, in the data set with OVCAR-3 [11], in the data set on SK-OV-3 and in the data set with OVCAR-3 [18] was Active. The Activity result in the data set on HEK293 is on record as “Non-Toxic”; in data set [6], “Toxic”; in the data set on OVCAR-3 [16], 1703.74 mm3; in data set [17], “Toxic”. The CLH in [7] amounted to 34.8 mL/min/g; in data set [12], 48 mL/min/g; in data set [13] it was 66.5 mL/min/g. Further, the values for the EC50 in the data set on OVCAR-3 [1] and with A2780 were 153 nM and 678 nM, respectively. This compound gave an AUClast in data set [9] of 480 ng·h/mL. Also, the Tmax – broadly, the time at which the peak concentration occurs – in data set [10] was 1 h. The t1/2 in [15] is 1.4 h.

With `CNC(=O)Nc1cc2c(cc1F)[C@@]1(CC2)OC(=O)N(CC(=O)N2Cc3ccc(F)cc3CC[C@H]2C2CC2)C1=O`, the figures for the IC50 (in data set [2]; at CREB-binding protein) were 1.7 nM and 8.2 nM, respectively. Also, the CLH was 161 mL/min/g in data set [7], 106 mL/min/g in [12] and 94.4 mL/min/g in data set [13]. Besides, the values for the EC50 in the data set with OVCAR-3 [1] and with A2780 were 4300 nM and 4470 nM, respectively.

Consider `CNC(=O)Nc1ccc2c(c1)CCC[C@@]21OC(=O)N(CC(=O)N2Cc3cc(F)ccc3OC[C@H]2C2CC2)C1=O`, for which the IC50 in [2] was 11 nM; on CREB-binding protein, 69 nM.

With `CNC(=O)Nc1ccc2c(c1)CC[C@@]21OC(=O)N(CC(=O)N2Cc3cc(F)c(F)cc3CC[C@H]2C2CC2)C1=O`, the IC50 was determined as 0.56 nM in data set [2] and 7 nM at CREB-binding protein. Further, the EC50 was found to be 164 nM in the data set on OVCAR-3 [1] and 974 nM in the data set on A2780.

Regarding `CNC(=O)Nc1ccc2c(c1)CCC[C@@]21OC(=O)N(CC(=O)N2Cc3ccc(F)cc3CC[C@H]2C2CC2)C1=O`, the figures for the IC50 (in data set [2]; on CREB-binding protein) were 2.2 nM and 14 nM, respectively.

On to `CNC(=O)Nc1ccc2c(c1)CC[C@@]21OC(=O)N(CC(=O)N2Cc3sccc3OC[C@H]2C2CC2)C1=O`, for which the concentration for half-maximal inhibition (IC50) turned out to be 4 nM in data set [2] and 12 nM at CREB-binding protein.

Take `CNC(=O)Nc1ccc2c(c1)CC[C@@]21OC(=O)N(CC(=O)N2Cc3sc(C)c(C)c3OC[C@H]2C(F)(F)F)C1=O`: the IC50 turned out to be 430 nM in data set [2] and 680 nM at CREB-binding protein.

Regarding `CNC(=O)Nc1ccc2c(c1)CC[C@@]21OC(=O)N(CC(=O)N2Cc3ccncc3CC[C@H]2C2CC2)C1=O`, the IC50 in data set [2] was 9.8 nM; on CREB-binding protein, 28 nM.

Consider `CNC(=O)Nc1ccc2c(c1)CC[C@@]21OC(=O)N(CC(=O)N2Cc3cccnc3CC[C@H]2C2CC2)C1=O`, for which the IC50 in data set [2] amounted to 10 nM; at CREB-binding protein, 44 nM.

For the compound `CNC(=O)Nc1ccc2c(c1)OCC[C@@]21OC(=O)N(CC(=O)N2Cc3ccc(F)cc3CC[C@H]2C2CC2)C1=O`, the IC50 came out at 8.6 nM in data set [2] and 22 nM on CREB-binding protein.

For `CNC(=O)Nc1ccc2c(c1)CC[C@@]21OC(=O)N(CC(=O)N2Cc3ccc(F)cc3CC[C@H]2C2CC2)C1=O`, the IC50 in data set [2] was determined as 0.95 nM; on CREB-binding protein it was 8.1 nM. For the same compound, the CLH in data set [7] stood at 112 mL/min/g; in data set [12], 150 mL/min/g; in [13] it was 258 mL/min/g. Also, the half-maximal effective concentration (EC50) in the data set on OVCAR-3 [1] stood at 90.4 nM; with A2780, 471 nM.
